Values after ≈ are worked out from the molar mass of the structure shown. Active and inactive are the calls of the source. The calls are words filed in the database; no cut-off is given here.

Data set [1] can be described thus: Solubility of the compound in water at 25 degC by HPLC analysis. The class given is physicochemical.
Data set [2] deals with Plasma. Briefly: Drug level in Sprague-Dawley rat plasma treated with 5 mg/kg, iv after 10 mins to 4 hrs. It counts as ADME, organism-based. On the set-up: dose 5 mg/kg, route intravenous. Particulars: in vivo.
The target in data set [3] is Prostaglandin G/H synthase 1 (Homo sapiens) (UniProt P23219). Briefly: Inhibition of recombinant COX-1 (unknown origin) at 0.1 uM.
Sequence of Prostaglandin G/H synthase 1 (Homo sapiens) (P23219 whole entry): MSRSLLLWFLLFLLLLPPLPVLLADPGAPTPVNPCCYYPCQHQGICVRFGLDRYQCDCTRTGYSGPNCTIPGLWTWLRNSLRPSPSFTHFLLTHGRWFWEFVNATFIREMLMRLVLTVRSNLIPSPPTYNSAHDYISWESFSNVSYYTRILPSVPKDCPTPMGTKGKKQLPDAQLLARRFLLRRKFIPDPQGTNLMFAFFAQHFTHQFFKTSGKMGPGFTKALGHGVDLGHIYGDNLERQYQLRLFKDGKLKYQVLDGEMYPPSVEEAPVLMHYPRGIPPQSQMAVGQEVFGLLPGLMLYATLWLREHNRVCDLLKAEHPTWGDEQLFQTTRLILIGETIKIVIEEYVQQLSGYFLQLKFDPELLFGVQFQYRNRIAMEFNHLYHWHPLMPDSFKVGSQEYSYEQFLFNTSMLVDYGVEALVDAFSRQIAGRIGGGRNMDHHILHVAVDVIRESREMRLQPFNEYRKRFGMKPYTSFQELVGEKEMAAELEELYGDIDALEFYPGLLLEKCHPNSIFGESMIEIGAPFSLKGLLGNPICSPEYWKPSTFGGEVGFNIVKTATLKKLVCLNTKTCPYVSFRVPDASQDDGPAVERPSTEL
Data set [4] addresses T1, Prostaglandin G/H synthase 2 (Homo sapiens) (UniProt P35354).
T1 sequence (whole entry): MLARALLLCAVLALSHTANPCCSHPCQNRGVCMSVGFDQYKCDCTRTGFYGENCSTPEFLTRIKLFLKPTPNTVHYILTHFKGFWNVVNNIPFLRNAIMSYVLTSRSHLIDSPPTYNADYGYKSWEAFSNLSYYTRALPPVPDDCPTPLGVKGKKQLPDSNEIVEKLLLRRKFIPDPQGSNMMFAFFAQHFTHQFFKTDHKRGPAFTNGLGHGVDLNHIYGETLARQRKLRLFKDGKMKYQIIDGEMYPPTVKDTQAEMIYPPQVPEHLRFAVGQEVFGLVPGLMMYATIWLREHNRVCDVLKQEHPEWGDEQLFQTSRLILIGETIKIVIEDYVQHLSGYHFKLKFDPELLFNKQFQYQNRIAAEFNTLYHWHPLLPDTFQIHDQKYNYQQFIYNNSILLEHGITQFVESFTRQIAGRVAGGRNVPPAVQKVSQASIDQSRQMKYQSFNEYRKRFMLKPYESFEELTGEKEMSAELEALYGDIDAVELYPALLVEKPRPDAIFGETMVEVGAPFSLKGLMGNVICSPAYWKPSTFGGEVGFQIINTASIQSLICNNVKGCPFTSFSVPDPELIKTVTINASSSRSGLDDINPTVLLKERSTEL
Kind of data set: Inhibition of recombinant COX-2 (unknown origin) at 0.1 uM.

Data set [5] has as its system Mus musculus. Briefly: Analgesic activity in Kun Ming mouse model assessed as inhibition of acetic acid-induced visceral pain at 0.1 mmol/kg, iv administered 5 mins prior to acetic acid challenge measured after 15 mins by writhing assay relative to control. It counts as functional. Set-up: scale not given: the % may be the effect or the level left. In general terms: Writhing tests count abdominal constrictions after an irritant is injected.

Data set [6] relates to Mus musculus. Briefly: Analgesic activity in Kun Ming mouse model assessed as inhibition of acetic acid-induced visceral pain at 0.1 mmol/kg, iv administered 5 mins prior to acetic acid challenge measured after 30 mins by writhing assay relative to control. It counts as functional. Set-up: scale not given: the % may be the effect or the level left.
For data set [7], the system named is Plasma. Briefly: Prodrug conversion in Sprague-Dawley rat plasma assessed as PC407 formation at 5 mg/kg, iv after 1.5 hrs. The class given is ADME, organism-based. Set-up: dose 5 mg/kg, route intravenous. Particulars: in vivo.
Data set [8] has as its target Prostaglandin G/H synthase 1 (Homo sapiens) (UniProt P23219). Briefly: Inhibition of recombinant COX-1 (unknown origin) at 10 uM.
In data set [9] the target is T1, Prostaglandin G/H synthase 2 (Homo sapiens). Kind of data set: Inhibition of recombinant COX-2 (unknown origin) at 10 uM.
Data set [10] is described as follows: Toxicity in iv dosed Kun Ming mouse. It counts as organism-based. Particulars: in vivo.

Regarding `NS(=O)(=O)c1ccc(-n2nc(C(F)(F)F)cc2-c2ccc3ccccc3c2)cc1`, the solubility (as a rule, how much of the substance goes into solution per volume) in [1] worked out at 0.0016 mg/mL (≈ 3.83 µM). Also, the Drug uptake entry in [2] is recorded as “Active”. Besides, the inhibition (commonly the percentage by which the read-out fell short of the control) in data set [3] was “inactive”. Besides, the inhibition in [4] worked out at 100%. The Activity is reported as 83% in data set [5] and 81% in data set [6].

As to `O=C([O-])CCC(=O)[N-]S(=O)(=O)c1ccc(-n2nc(C(F)(F)F)cc2-c2ccc3ccccc3c2)cc1.[Na+].[Na+]`, the concentration in solution in data set [1] (solubility) was 20.3 mg/mL. In addition, in data set [7], the Drug metabolism result is reported as “metabolite_detected”. Further, the inhibition result in data set [8] and in [9] was “inactive” throughout. For the same compound, the Activity is reported as 77% in data set [5] and 83% in data set [6]. In addition, the MTD in data set [10] was over 1500 mg/kg.

These data come from ChEMBL document CHEMBL3351954, “Enhanced water-soluble derivative of PC407 as a novel potential COX-2 inhibitor injectable formulation” (Bioorg Med Chem Lett, 2014).
